SMILES strings stand for the structures.

The nature of data set [1]: Tolerability and body weight in the hamster mucositis study. It is filed as in vivo, hamsters. As to the method:
Fifty-six (56) male Syrian Golden Hamsters were used in the study. Mucositis was induced by administering an acute radiation dose of 40 Gy directed to the left buccal cheek pouch on Day 0 at a rate of 2-2.5 Gy/min. Mucositis was evaluated clinically starting on Day 6 and continuing on alternate days until Day 28. Hamsters reaching a mucositis severity score of 4 or higher received buprenorphine (0.5 mg/kg) SC twice a day for 48 hours or until score dropped below 4.
Dosing was scheduled as follows: for animals in Groups 1-4, animals were dosed with RRx-001 (1, 3, or 10 mg/kg) or vehicle (1:2 DMA:PEG400 vol:vol ratio) once a day (QD) on Days −4, −1, 1, 4, 7, 11, 14, 18, 21, and 25 via intraperitoneal (IP) administration; animals in Groups 5-7 were dosed QD with RRx-001 (1, 3, or 10 mg/kg) on Days −4, −1, 1, 8, 15, and 22.
Dosing of all other groups continued as scheduled. Upon study conclusion, on Day 28, Animals were euthanized via CO2 inhalation and death was confirmed by monitoring heartbeat in accordance with USDA guidelines.

The next data set has as its system HO-1. Briefly: Western blot of HO-1 in THP-1 monocytes and macrophages. Type of data set: cell-based, human. The conditions noted are these: THP-1 macrophages, 3 mM RRx-001 for 16 hours. As to the method:
Expression of ARE proteins was assayed in hMSC, macrophages, and monocytes following in vitro irradiation of the cells, which were pretreated with RRx-001 or vehicle. Protein expression was assayed by Western blotting and protein quantification.
hMSC were treated for 16 hours with […] RRx-001 or the vehicle control (0.05% DMSO), irradiated at 10 Gy or sham-irradiated and the protein collected 8 or 24 hours post-sham or irradiation. Human monocytic leukemic THP-1 and U937 cells were differentiated into macrophages with 50 nM Phorbol 12-myristate 13-acetate (PMA) for 24 hours before treatment. Differentiated and non-differentiated cells were treated with […] RRx-001 or 0.05% DMSO (vehicle control) for 16 hours prior to radiation. The cells were irradiated at 5 Gy or sham-irradiated and collected 4-8 hours later for both analysis. For each experiment, duplicates of each sample were run.

The subject of another data set is CD2F1 male mice. Briefly: 30-day survival following lethal total body irradiation. Type of data set: in vivo. As to the method: In this Example, the effects of systemic administration of RRx-001 on survival in response to a lethal dose of radiation was assayed in mice. CD2F1 male mice 9.5-11 weeks old were administered a single dose of RRx-001 by intraperitoneal (IP) injection 24 hours prior to a lethal radiation dose. 24 mice received 10 mg/kg RRx-001 (formulated in 5% DMSO in sterile H2O) and 24 mice received the vehicle control (5% DMSO in sterile H2O only).
The mice were subjected to total body irradiation (TBI) with 9.35 Gy (LD70/30) at 0.6 Gy/min using High-level Cobalt-60. Unanesthetized mice were placed in well-ventilated Plexiglas restrainers and irradiated bilaterally. Sham-irradiated mice were also placed in identical Plexiglas restrainers and kept in a room shielded from irradiation at the same time. In each experiment, the dose to the abdominal cores of the animals was delivered at a dose rate of approximately 0.6 Gy/min. Dosimetry was performed prior to the irradiation of the animals using the highly accurate alanine/electron spin resonance (ESR) dosimetry system (American Society for Testing and Materials, Standard E 1607) to measure dose rates (to water) in the cores of acrylic mouse phantoms, which were located in the compartments of the exposure rack. A calibration curve based on standard alanine calibration dosimeters provided by the National Institute of Standards and Technology (NIST, Gaithersburg, Md.) was used to measure the doses. The accuracy of the dose rate calibrations has been verified several times using the services of the National Physics Laboratory (UK National Standards Laboratory, London, UK) and the M.D. Anderson Cancer Center (Houston, Tex.). The corrections applied to the measured dose rates in the phantoms were for a small difference in the Co-60 energy between the mass energy-absorption coefficients for soft tissue and water, as well as source decay. The radiation field was uniform within ±1.2%.
Mice were monitored at least twice a day for 30 days post-irradiation. During the critical period (days 10-20), mice were monitored at least three times a day with no more than 10 hours between observations. Mice displaying any signs of discomfort received food in their cage as a wet mash. Mice displaying overt dyspnea, weight loss, lethargy, or other markers of moribundity and appearing to be in distress were humanely euthanized in a separate room using carbon dioxide gas followed by cervical dislocation after breathing stopped as a confirmatory method of euthanasia. This experiment was repeated for a total of n=24 mice per group.
Survival curves were estimated using the Kaplan-Meier method and were compared using a two-sided log-rank test at the 0.05 significance level. P-values were considered statistically significant if less than 0.05.

The test system of another data set is superoxide dismutase. Briefly: Superoxide dismutase activity assay in hMSC. It is filed as cell-based, human. The note with it: 5 mM RRx-001 for 16 hours, 8 hours after 10 Gy irradiation. The protocol:
The activity of superoxide dismutase activity was also assayed in hMSC. hMSC were treated for 16 hours with […] RRx-001 or vehicle, irradiated at 10 Gy or sham-irradiated and whole cell homogenate collected according to the manufacture's protocol. The assay measures the activity of all three forms of SOD. The amount of SOD activity (U/mL) was normalized to protein levels.

Where [2] appears, read: 10 mg/kg 24 hours prior to lethal TBI, vs vehicle control.

Regarding `O=C(CBr)N1CC([N+](=O)[O-])([N+](=O)[O-])C1` [RRx-001, 2-bromo-1-(3,3-dinitroazetidin-1-yl)ethan-1-one], the body weight result in data set [1] (Groups 2 and 5 (10 mg/kg)) is reported as “lower weights than all other groups”; in data set [1] (animals other than Groups 2 and 5 (1 and 3 mg/kg), duration of the study) it was “steadily gained weight”. The “body weight after cessation of dosing” value in data set [1] (Groups 2 and 5 (10 mg/kg), in line with other groups by study termination) was “weight slowly recovered”. For the same molecule, the tolerability entry in data set [1] (highest dose 10 mg/kg IP, Groups 2 and 5, dosing discontinued after Day 1) is “adverse side effects”. Moreover, the HO-1 expression entry in the data set on HO-1 is on record as “no significant increase in HO-1”. In the data set on CD2F1 male mice (setting [2]), the “increase in mean survival time” value is 7 days. Besides, the increase in survival in the data set with CD2F1 male mice (setting [2]) stood at 33.4%. Also, in the data set with CD2F1 male mice (10 mg/kg IP 24 hours prior to 9.35 Gy TBI, 30-day observation, N=24/group), the “survival times, means±standard errors” value came to 27.2 ± 1.1 days. Also, the “reduction in the 30-day death risk” value with CD2F1 male mice (one dose of 10 mg/kg IP 24 hours prior to 9.35 Gy (LD70/30) TBI, vs vehicle control irradiated mice) is about 33.4%. In addition, in the data set on superoxide dismutase, the “Superoxide Dismutase Activity” value was “did not increase”.

These data come from patent publication US20200345689A1, “METHODS AND CO[…] RRx-001 FOR RADIOPROTECTION” (EpicentRx, Inc., priority 2018, published 2020).
